Test results: patent US11717639B2, “Combinatorial therapeutic systems and methods” (Cognifisense, Inc., priority 2018, dated 2023)
“Also recorded” adds a separate entry of the source.

What was measured:
[1] = test system: pain associated with fibromyalgia; assay: Combinatorial therapy of milnacipran and VRNT or virtual reality distraction therapy for fibromyalgia; assay type: in vivo, patient
Source text: In an exemplary embodiment, a combinatorial therapeutic system for treating fibromyalgia includes a serotonin-norepinephrine reuptake inhibitor (SNRI) and an artificial sensory experience. The SNRI can include milnacipran, specifically, and in some embodiments, the SNRI can include other SNRIs commonly prescribed to treat fibromyalgia (e.g., duloxetine). Similar to those combinatorial systems described above, the artificial sensory experience combined with the SNRI (preferably milnacipran) can include any of 2D/3D/4D artificial sensory experiences, holography, augmented reality, virtual reality, and/or mixed reality. In an exemplary embodiment, the artificial sensory experience is VRNT or virtual reality distraction therapy.
In some embodiments, the combinatorial treatment systems and methods for treating/mitigating pain associated with fibromyalgia can have similar results to those illustrated and described with respect to FIGS. 5A, 5B, 5C, 6A, and 6B.

[2] = test system: mACh receptors; conditions: cited from earlier work
[3] = test system: α1 receptors; conditions: cited from earlier work
[4] = target: D1 receptors (Homo sapiens, UniProt P21728); conditions: cited from earlier work
Chain of D1 receptors (P21728 whole entry): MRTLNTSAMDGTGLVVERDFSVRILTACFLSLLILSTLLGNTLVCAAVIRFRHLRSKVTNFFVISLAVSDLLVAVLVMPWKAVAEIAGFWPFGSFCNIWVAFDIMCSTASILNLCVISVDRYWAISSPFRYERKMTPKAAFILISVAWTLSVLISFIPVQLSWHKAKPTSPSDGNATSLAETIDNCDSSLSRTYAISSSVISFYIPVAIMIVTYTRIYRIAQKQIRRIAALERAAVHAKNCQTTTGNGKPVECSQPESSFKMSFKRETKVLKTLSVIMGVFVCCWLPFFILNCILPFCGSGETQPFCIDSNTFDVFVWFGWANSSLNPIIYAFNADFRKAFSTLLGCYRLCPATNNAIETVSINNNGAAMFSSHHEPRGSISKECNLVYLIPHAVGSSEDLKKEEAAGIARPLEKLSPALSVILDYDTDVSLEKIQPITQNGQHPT

[5] = test system: opioid binding sites; conditions: cited from earlier work
[6] = target: D2 receptors (Homo sapiens, UniProt P14416); conditions: cited from earlier work
Chain of D2 receptors (P14416 whole entry): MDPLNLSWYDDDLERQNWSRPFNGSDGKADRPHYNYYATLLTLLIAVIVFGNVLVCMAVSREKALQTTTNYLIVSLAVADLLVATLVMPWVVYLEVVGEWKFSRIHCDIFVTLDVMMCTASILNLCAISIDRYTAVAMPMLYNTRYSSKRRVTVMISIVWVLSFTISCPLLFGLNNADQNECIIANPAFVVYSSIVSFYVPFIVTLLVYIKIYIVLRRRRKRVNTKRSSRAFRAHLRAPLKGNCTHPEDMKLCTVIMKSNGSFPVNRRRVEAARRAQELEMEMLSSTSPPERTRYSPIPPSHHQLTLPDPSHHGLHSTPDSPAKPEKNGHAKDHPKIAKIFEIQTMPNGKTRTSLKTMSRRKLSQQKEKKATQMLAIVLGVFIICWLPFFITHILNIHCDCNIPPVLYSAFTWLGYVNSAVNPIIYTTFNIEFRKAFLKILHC

[7] = target: H1 receptors (Homo sapiens, UniProt P35367); conditions: cited from earlier work
Chain of H1 receptors (P35367 whole entry): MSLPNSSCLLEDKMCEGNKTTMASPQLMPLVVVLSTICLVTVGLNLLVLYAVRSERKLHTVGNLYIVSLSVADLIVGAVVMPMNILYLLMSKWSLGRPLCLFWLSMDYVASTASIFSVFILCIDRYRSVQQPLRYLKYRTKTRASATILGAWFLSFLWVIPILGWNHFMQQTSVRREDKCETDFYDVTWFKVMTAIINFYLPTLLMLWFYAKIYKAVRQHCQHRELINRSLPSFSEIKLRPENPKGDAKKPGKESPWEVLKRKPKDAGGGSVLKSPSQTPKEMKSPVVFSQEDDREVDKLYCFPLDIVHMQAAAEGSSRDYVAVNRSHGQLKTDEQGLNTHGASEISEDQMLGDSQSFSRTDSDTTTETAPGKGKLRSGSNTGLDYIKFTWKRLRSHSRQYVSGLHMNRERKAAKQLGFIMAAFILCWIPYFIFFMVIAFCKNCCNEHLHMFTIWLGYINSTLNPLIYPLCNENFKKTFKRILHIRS

[8] = test system: benzodiazepine binding sites; conditions: cited from earlier work
[9] = test system: pain; conditions: reported; cited from earlier work
[10] = test system: pain; assay: Combinatorial therapy of opioid analgesic and VRNT: patient's amount of pain over time (FIGS. 5A-5C); assay type: in vivo; conditions: opioid analgesic in combination with VRNT, potential patient responses
Source text: FIGS. 5A-5C illustrate exemplary graphs of potential effects of combinatorial therapeutic systems/methods employing tapentadol and VRNT on a patient's amount of pain over time; and
The synergistic effects of the disclosed combinatorial therapeutic systems/methods can be exemplified in a plurality of responses. For example, FIGS. 5A-5C illustrate a combinatorial therapy using tapentadol (as the opioid analgesic) and VRNT (as the artificial sensory experience) with different potential patient responses. As many, if not all, patients may experience the synergistic benefits afforded by the disclosed combinatorial therapeutic systems/methods as an average benefit, the individual-specific responses may be different.

[11] = relative to tramadol and morphine; cited from earlier work

Structure (SMILES)	pain over time [1]	actions on mACh receptors [2]	actions on α1 receptors [3]	actions on D1 receptors [4]	actions on opioid binding sites [5]	actions on D2 receptors [6]	actions on H1 receptors [7]	actions on benzodiazepine binding sites [8]	pain reduction / efficacy versus placebo [9]	patient's amount of pain over time [10]	potency [11]
CCN(CC)C(=O)C1(c2ccccc2)CC1CN (centres unmarked) [milnacipran]	decrease in pain over time	no significant actions	no significant actions	no significant actions	no significant actions	no significant actions	no significant actions	no significant actions	–	–	–
CC[C@@H](c1cccc(O)c1)[C@@H](C)CN(C)C [tapentadol]	–	–	–	–	–	–	–	–	limited efficacy beyond placebo; also recorded: only marginal incremental pain reduction versus placebo	constant or linear decrease in pain over time; also recorded: cyclical decrease and increase in pain levels over time with an overall decreasing pain level; also recorded: step-wise reduction in pain levels	somewhere between tramadol, another synthetic opioid, and morphine
